In assay [1] the test system is NCI-H460. Briefly: Antiproliferative activity against human NCI-H460 cells harboring DOT1L R231Q mutant (unknown origin) (1 to 416 residues) assessed as inhibition of cell proliferation incubated for 72 hrs by CCK-8 assay. The format is functional, cell-based. Particulars: NCI-H460, 72 h. (Formazan colour is commonly taken as a measure of viable cells.)
The test system of assay [2] is NCI-H460. Briefly: Antiproliferative activity against human NCI-H460 cells harboring wildtype DOT1L (unknown origin) (1 to 416 residues) assessed as inhibition of cell proliferation incubated for 72 hrs by CCK-8 assay. The format is functional, cell-based. Particulars: NCI-H460, 72 h.
Assay [3] relates to NCI-H460. The experiment in a line: Antiproliferative activity against human NCI-H460 cells harboring DOT1L R231Q mutant assessed as inhibition of cell proliferation incubated for 72 hrs by CCK-8 assay. The format is functional, cell-based. Particulars: NCI-H460, 72 h.
The subject of assay [4] is NCI-H460. Briefly: Antitumor activity against human NCI-H460 cells harboring DOT1L R231Q OE mutant xenografted in male BALB/c-nu mouse model assessed as tumor growth inhibition at 20 mg/kg, ip administered five times a week for 3 weeks relative to control. It is filed as functional. The conditions noted are these: NCI-H460, 504 h, read-out: TGI.

The IC50 is the concentration that gives 50% inhibition.

In the case of `CN(CCCNC(=O)Nc1ccc(C(C)(C)C)cc1)CC1(O)CCN(c2nc(Cl)nc3[nH]cnc23)C1` (stereo unspecified), the figures for the half-maximal inhibitory concentration (IC50) in the assay on NCI-H460 [1] and in the assay with NCI-H460 [2] were 17.6 µM and 6.46 µM, respectively.

In the case of `CN(CCCNC(=O)Nc1ccc(C(C)(C)C)cc1)CC1CCCN(C(=O)c2ccc[nH]c2=O)C1` (stereo unspecified), the IC50 was determined as 83.2 µM in the assay on NCI-H460 [1] and 66.3 µM with NCI-H460 [2].

In the case of `CC(C)(C)c1ccc(NC(=O)NCCCN(CCCN2CCOCC2)CC2(O)CCN(c3nc(Cl)nc4[nH]cnc34)C2)cc1` (stereo unspecified), the IC50 stood at 9.59 µM in the assay with NCI-H460 [1] and 31.4 µM in the assay with NCI-H460 [2].

With `CC(C)N(CCCNC(=O)Nc1ccc(C(C)(C)C)cc1)CC1(O)CCN(c2nc(Cl)nc3[nH]ccc23)C1` (stereo unspecified), the IC50 was found to be 25.6 µM in the assay on NCI-H460 [1] and 17.6 µM with NCI-H460 [2].

With `CN(CCCNC(=O)Nc1ccc(C(C)(C)C)cc1)CC1(O)CCN(c2nc(N)nc3[nH]cnc23)C1` (stereo unspecified), the IC50 in the assay on NCI-H460 [1] is 44.9 µM; in the assay on NCI-H460 [2], 23.8 µM.

`CC(C)(C)C(=O)Nc1ccc2[nH]c(CN3CCC(N(CCCN4CCOCC4)CC4CCCN(c5cc(C#N)ccn5)C4)CC3)nc2c1` (stereo unspecified): the results for the half-maximal inhibitory concentration (IC50) with NCI-H460 [1] and with NCI-H460 [2] were 85.5 µM and more than 100 µM, respectively.

As to `CC(C)N(CCCNC(=O)Nc1ccc(C(C)(C)C)cc1)CC1(O)CCN(c2nc(Cl)nc3sccc23)C1` (stereo unspecified), the values for the IC50 in the assay on NCI-H460 [1] and in the assay with NCI-H460 [2] were 16 µM and 7.56 µM, respectively.

For `CC(C)N(CCCNC(=O)Nc1ccc(C(C)(C)C)cc1)CC1CCCN(c2cc(C#N)ccn2)C1` (stereo unspecified), the IC50 in the assay with NCI-H460 [1] and in the assay on NCI-H460 [2] was more than 100 µM throughout.

Consider `CC(C)(C)c1ccc(NC(=O)NCCCN(CCC(=O)N2CCSCC2)CC2(O)CCN(c3ncnc4[nH]cnc34)C2)cc1` (stereo unspecified), for which the IC50 in the assay with NCI-H460 [1] is 89.6 µM; with NCI-H460 [2] it was more than 100 µM.

As for `COC(=O)CCN(CCCNC(=O)Nc1ccc(C(C)(C)C)cc1)CC1(O)CCN(c2ncnc3[nH]cnc23)C1` (stereo unspecified), the IC50 with NCI-H460 [1] and in the assay with NCI-H460 [2] was more than 100 µM throughout.

Regarding `CC(C)(C)c1ccc(NC(=O)NCCCN(CCC(=O)N2CCOCC2)CC2(O)CCN(c3ncnc4[nH]cnc34)C2)cc1` (stereo unspecified), the results for the IC50 in the assay on NCI-H460 [1] and in the assay on NCI-H460 [2] were 95.5 µM and more than 100 µM, respectively.

As for `CC(C)(C)C(=O)Nc1ccc2[nH]c(CN3CCC(N(CCCN4CCOCC4)CC4CCCN(c5nc(Cl)nc6[nH]cnc56)C4)CC3)nc2c1` (stereo unspecified), the IC50 is 48.1 µM with NCI-H460 [1] and more than 100 µM in the assay on NCI-H460 [2].

Take `CN(CCCNC(=O)Nc1ccc(C(C)(C)C)cc1)CC1(O)CCN(c2nc(Cl)nc3ccsc23)C1` (stereo unspecified): the IC50 with NCI-H460 [1] was determined as 50.8 µM; with NCI-H460 [2], 27.7 µM.

With `CN(CCCNC(=O)Nc1ccc(C(C)(C)C)cc1)CC1(O)CCN(c2nc(Cl)nc3[nH]ncc23)C1` (stereo unspecified), the figures for the IC50 with NCI-H460 [1] and with NCI-H460 [2] were 21.8 µM and 8.51 µM, respectively.

On to `CC(C)(C)c1ccc(NC(=O)NCCCN(CCC(=O)N2CCSCC2)CC2(O)CCN(c3nc(Cl)nc4[nH]ncc34)C2)cc1` (stereo unspecified), for which the IC50 is 16.2 µM in the assay on NCI-H460 [1] and 44 µM in the assay with NCI-H460 [2].

`CC(C)N(CCCNC(=O)Nc1ccc(C(C)(C)C)cc1)CC1CCCN(c2ncnc3[nH]cnc23)C1` (stereo unspecified): the IC50 in the assay on NCI-H460 [1] turned out to be 66.5 µM; with NCI-H460 [2] it was 64.7 µM.

For the compound `CN(CCCNC(=O)Nc1ccc(C(C)(C)C)cc1)CC1CCCN(c2nc(Cl)nc3[nH]cnc23)C1` (stereo unspecified), the IC50 in the assay on NCI-H460 [1] came out at 37.7 µM; in the assay on NCI-H460 [2] it was 23.3 µM.

Regarding `CC(C)N(CCCNC(=O)Nc1ccc(C(C)(C)C)cc1)CC1(O)CCN(c2nc(Cl)nc3[nH]cnc23)C1` (stereo unspecified), the IC50 is 13.8 µM in the assay with NCI-H460 [1] and 5.33 µM in the assay on NCI-H460 [2].

For `CC(C)N(CCCNC(=O)Nc1ccc(C(C)(C)C)cc1)CC1(O)CCN(c2nc(N)nc3[nH]cnc23)C1` (stereo unspecified), the 50% inhibitory concentration (IC50) with NCI-H460 [1] was determined as 35.7 µM; in the assay with NCI-H460 [2] it was 25.6 µM.

With `CC(C)(C)C(=O)Nc1ccc2[nH]c(CN3CCC(N(CCCN4CCOCC4)CC4CCCN(C(=O)c5cnccn5)C4)CC3)nc2c1` (stereo unspecified), the IC50 in the assay with NCI-H460 [1] and in the assay with NCI-H460 [2] was more than 100 µM in each case.

For the compound `CN(CCCNC(=O)Nc1ccc(C(C)(C)C)cc1)CC1CCCN(C(=O)c2cnccn2)C1` (stereo unspecified), the IC50 in the assay on NCI-H460 [1] and in the assay on NCI-H460 [2] was more than 100 µM in each case.

As to `CC(C)(C)C(=O)Nc1ccc2nc(CN3CCC(N(CCCN4CCOCC4)C[C@H]4O[C@@H](n5cnc6c(N)ncnc65)[C@H](O)[C@@H]4O)CC3)[nH]c2c1`, in the assay with NCI-H460 [3], the IC50 turned out to be 6.18 µM. In addition, the inhibition in vivo at 20 mg/kg with NCI-H460 [4] came to 54.4%.

Take `CN(CCCNC(=O)Nc1ccc(C(C)(C)C)cc1)CC1CCCN(c2cc(C#N)ccn2)C1` (stereo unspecified): the IC50 in the assay with NCI-H460 [1] was 91.2 µM; with NCI-H460 [2], more than 100 µM.

For the compound `CC(C)(C)c1ccc(NC(=O)NCCCN(CCCN2CCOCC2)CC2(O)CCN(c3ncnc4[nH]cc(Br)c34)C2)cc1` (stereo unspecified), the results for the half-inhibitory concentration (IC50) with NCI-H460 [1] and in the assay with NCI-H460 [2] were 36.5 µM and 45.6 µM, respectively.

Turning to `CC(C)N(CCCNC(=O)Nc1ccc(C(C)(C)C)cc1)CC1(O)CCN(c2ncnc3[nH]ccc23)C1` (stereo unspecified), the results for the IC50 with NCI-H460 [1] and in the assay with NCI-H460 [2] were 83.9 µM and 54.4 µM, respectively.

For `COC(=O)CCN(CCCNC(=O)Nc1ccc(C(C)(C)C)cc1)CC1(O)CCN(c2nc(Cl)nc3[nH]cnc23)C1` (stereo unspecified), the figures for the half-inhibitory concentration (IC50) in the assay with NCI-H460 [1] and in the assay with NCI-H460 [2] were 30.9 µM and 72.6 µM, respectively.

Take `CC(C)(C)c1ccc(NC(=O)NCCCN(CCCN2CCOCC2)CC2(O)CCN(c3nc(N)nc4[nH]cnc34)C2)cc1` (stereo unspecified): the figures for the IC50 with NCI-H460 [1] and in the assay with NCI-H460 [2] were 29.6 µM and more than 100 µM, respectively.

With `CC(C)(C)c1ccc(NC(=O)NCCCN(CCC(=O)N2CCSCC2)CC2(O)CCN(c3nc(Cl)nc4[nH]cnc34)C2)cc1` (stereo unspecified), the IC50 with NCI-H460 [1] turned out to be 23.2 µM; in the assay with NCI-H460 [2], 64.5 µM.

On to `CC(C)N(CCCNC(=O)Nc1ccc(C(C)(C)C)cc1)C[C@H]1O[C@@H](n2cc(Br)c3c(N)ncnc32)[C@H](O)[C@@H]1O`, for which the IC50 amounted to 36 µM in the assay on NCI-H460 [1] and 8.83 µM in the assay on NCI-H460 [2].

As to `CC(C)N(CCCNC(=O)Nc1ccc(C(C)(C)C)cc1)CC1CCCN(C(=O)c2ccc[nH]c2=O)C1` (stereo unspecified), the values for the IC50 in the assay on NCI-H460 [1] and in the assay on NCI-H460 [2] were 81.2 µM and 75.7 µM, respectively.

For the compound `CC(C)N(CCCNC(=O)Nc1ccc(C(C)(C)C)cc1)CC1(O)CCN(c2ncnc3[nH]cc(Br)c23)C1` (stereo unspecified), the results for the IC50 in the assay with NCI-H460 [1] and in the assay with NCI-H460 [2] were 45.3 µM and 35.2 µM, respectively.

Regarding `CC(C)N(CCCNC(=O)Nc1ccc(C(C)(C)C)cc1)CC1(O)CCN(c2nc(Cl)nc3[nH]ncc23)C1` (stereo unspecified), the IC50 in the assay with NCI-H460 [1] came out at 14.5 µM; with NCI-H460 [2] it was 6.47 µM.

With `CC(C)(C)c1ccc(NC(=O)NCCCN(CCO)CC2(O)CCN(c3nc(N)nc4[nH]cnc34)C2)cc1` (stereo unspecified), the figures for the concentration for half-maximal inhibition (IC50) with NCI-H460 [1] and in the assay on NCI-H460 [2] were 52.6 µM and 31.2 µM, respectively.

Turning to `CC(C)(C)c1ccc(NC(=O)NCCCN(CCCN2CCOCC2)CC2(O)CCN(c3nc(Cl)nc4[nH]ncc34)C2)cc1` (stereo unspecified), the IC50 in the assay on NCI-H460 [1] is 7.15 µM; with NCI-H460 [2], 18.9 µM.

Take `CC(C)(C)C(=O)Nc1ccc2[nH]c(CN3CCC(N(CCCN4CCOCC4)CC4CCCN(c5nc(Cl)nc6[nH]ncc56)C4)CC3)nc2c1` (stereo unspecified): the values for the IC50 in the assay with NCI-H460 [1] and in the assay with NCI-H460 [2] were 52 µM and more than 100 µM, respectively.

For `CC(C)(C)c1ccc(NC(=O)NCCCN(CCC(=O)N2CCOCC2)CC2(O)CCN(c3nc(Cl)nc4[nH]cnc34)C2)cc1` (stereo unspecified), the IC50 in the assay on NCI-H460 [1] was 38.4 µM; in the assay on NCI-H460 [2] it was 53.9 µM.

On to `CN(CCCNC(=O)Nc1ccc(C(C)(C)C)cc1)CC1CCCN(c2ncnc3[nH]cnc23)C1` (stereo unspecified), for which the results for the IC50 in the assay with NCI-H460 [1] and in the assay on NCI-H460 [2] were 64.3 µM and 68.6 µM, respectively.

In the case of `CN(CCCNC(=O)Nc1ccc(C(C)(C)C)cc1)CC1(O)CCN(c2ncnc3[nH]cc(Br)c23)C1` (stereo unspecified), the IC50 with NCI-H460 [1] was 40.6 µM; in the assay with NCI-H460 [2], 38.7 µM.

In the case of `CC(C)(C)c1ccc(NC(=O)NCCCN(CCO)CC2(O)CCN(c3ncnc4[nH]cc(Br)c34)C2)cc1` (stereo unspecified), the IC50 amounted to 47.1 µM in the assay with NCI-H460 [1] and 41.3 µM with NCI-H460 [2].

With `CC(C)(C)c1ccc(NC(=O)NCCCN(CCCN2CCOCC2)CC2(O)CCN(c3ncnc4[nH]cnc34)C2)cc1` (stereo unspecified), the figures for the concentration for half-maximal inhibition (IC50) with NCI-H460 [1] and with NCI-H460 [2] were 73.1 µM and more than 100 µM, respectively.

For `CC(C)N(CCCNC(=O)Nc1ccc(C(C)(C)C)cc1)CC1CCCN(c2nc(Cl)nc3[nH]cnc23)C1` (stereo unspecified), the IC50 in the assay on NCI-H460 [1] was 38.7 µM; in the assay with NCI-H460 [2] it was 21.8 µM.

Consider `CC(C)(C)C(=O)Nc1ccc2[nH]c(CN3CCC(N(CCCN4CCOCC4)CC4CCCN(c5ncnc6[nH]cnc56)C4)CC3)nc2c1` (stereo unspecified), for which the values for the IC50 in the assay on NCI-H460 [1] and in the assay with NCI-H460 [2] were 73.8 µM and more than 100 µM, respectively.

`COC(=O)CCN(CCCNC(=O)Nc1ccc(C(C)(C)C)cc1)CC1(O)CCN(c2nc(Cl)nc3[nH]ncc23)C1` (stereo unspecified): the values for the half-inhibitory concentration (IC50) with NCI-H460 [1] and in the assay with NCI-H460 [2] were 28.4 µM and 61.7 µM, respectively.
